# According to patent US20250171438A1 (Agios Pharmaceuticals, Inc., priority 2022, published 2025):
# Biological target: T1, human PAH with the R408W mutation (Homo sapiens, UniProt P00439, R408W)
# T1 construct: expressed in transfected cells
# T1 sequence (P00439 1-452 R408W): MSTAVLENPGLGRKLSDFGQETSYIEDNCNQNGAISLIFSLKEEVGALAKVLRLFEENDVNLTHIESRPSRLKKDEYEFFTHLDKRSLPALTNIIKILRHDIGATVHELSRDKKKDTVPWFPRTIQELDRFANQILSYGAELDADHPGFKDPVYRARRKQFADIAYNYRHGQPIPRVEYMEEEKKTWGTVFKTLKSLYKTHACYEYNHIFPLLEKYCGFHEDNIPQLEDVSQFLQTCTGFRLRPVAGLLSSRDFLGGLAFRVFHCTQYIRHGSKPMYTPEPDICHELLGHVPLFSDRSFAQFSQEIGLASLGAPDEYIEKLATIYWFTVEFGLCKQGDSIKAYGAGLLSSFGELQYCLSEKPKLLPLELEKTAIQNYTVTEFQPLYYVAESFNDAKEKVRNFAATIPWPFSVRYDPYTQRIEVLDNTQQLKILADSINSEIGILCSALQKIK
# Experiment: Cell Based Phenylalanine Flux Assay
# Conditions: A375 cells expressing human R408W PAH; 24 hrs compound incubation; 13C-Tyrosine by LC-MS; average where tested multiple times; read-out: AC50
row,Molecule,AC50 [µM]
1,"O=C(c1cnn2ccc(Cl)cc12)N1CCc2[nH]cnc2[C@@H]1c1nc2ccccc2s1 [Example 1108, (R)-(4-(benzo[d]thiazol-2-yl)-6,7-dihydro-1H-imidazo[4,5-c]pyridin-5(4H)-yl)(5-chloropyrazolo[1,5-a]pyridin-3-yl)methanone]",1 to 5
2,"O=C(c1ncn2ccccc12)N1CCc2[nH]cnc2[C@@H]1c1nc2ccccc2s1 [Example 1028, (R)-(4-(benzo[d]thiazol-2-yl)-6,7-dihydro-1H-imidazo[4,5-c]pyridin-5(4H)-yl)(imidazo[1,5-a]pyridin-1-yl)methanone]",> 5
3,O=C(c1cnc(NC2CC2)s1)N1CCc2[nH]cnc2[C@H]1c1nc2ccccc2s1 [Example 1183],< 0.5
4,"O=C(c1cncs1)N1CCc2[nH]cnc2[C@@H]1c1nc2cccc(F)c2s1 [Example 1234, (R)-(4-(7-fluorobenzo[d]thiazol-2-yl)-6,7-dihydro-1H-imidazo[4,5-c]pyridin-5(4H)-yl)(thiazol-5-yl)methanone]",1 to 5
5,"(R,Z)-1-(4-(1H-benzo[d]imidazol-2-yl)-6,7-dihydro-1H-imidazo[4,5-c]pyridin-5(4H)-yl)-2-(5-(prop-1-en-1-yl)-4-vinylthiazol-2-yl)ethanone [Example 904]",> 5
6,"O=C(c1nccs1)N1CCc2nc[nH]c2[C@H]1c1nc2c(F)cccc2s1 [Example 1120, (S)-(4-(4-fluorobenzo[d]thiazol-2-yl)-6,7-dihydro-3H-imidazo[4,5-c]pyridin-5(4H)-yl)(thiazol-2-yl)methanone]",0.5 to 1
7,O=C(c1cnn2cc(F)ccc12)N1CCc2[nH]cnc2[C@H]1c1nc2ccccc2s1 [Example 1039],0.5 to 1
8,"O=C(c1cnc(C(F)(F)F)s1)N1CCc2[nH]cnc2[C@@H]1c1nc2ccccc2s1 [Example 1182, (R)-(4-(benzo[d]thiazol-2-yl)-6,7-dihydro-1H-imidazo[4,5-c]pyridin-5(4H)-yl)(2-(trifluoromethyl)thiazol-5-yl)methanone]",1 to 5
9,Cc1ncoc1C(=O)N1CCc2[nH]cnc2[C@H]1c1nc2ccccc2s1 [Example 1161],< 0.5

# Other lines, results leading:
row,AC50 [µM],Molecule
1,1 to 5,"(R)-(5-(difluoromethyl)-1-methyl-1H-pyrazol-4-yl)(4-(4-fluorobenzo[d]thiazol-2-yl)-6,7-dihydro-1H-imidazo[4,5-c]pyridin-5(4H)-yl)methanone [Example 1744]"
2,0.5 to 1,"O=C(c1ocnc1C(F)F)N1CCc2[nH]cnc2[C@@H]1c1nc2c(F)cccc2s1 [Example 1616, (R)-(4-(difluoromethyl)oxazol-5-yl)(4-(4-fluorobenzo[d]thiazol-2-yl)-6,7-dihydro-1H-imidazo[4,5-c]pyridin-5(4H)-yl)methanone]"
3,> 5,"O=C(c1oc(-c2ccccn2)nc1C1CC1)N1CCc2[nH]cnc2[C@@H]1c1nc2ccccc2s1 [Example 1516, (R)-(4-(benzo[d]thiazol-2-yl)-6,7-dihydro-1H-imidazo[4,5-c]pyridin-5(4H)-yl)(4-cyclopropyl-2-(pyridin-2-yl)oxazol-5-yl)methanone]"
4,< 0.5,CC(C)(C)c1ncc(C(=O)N2CCc3[nH]cnc3[C@H]2c2nc3ccccc3s2)o1 [Example 1427]
5,< 0.5,O=C(c1nnc(N2CCC(F)CC2)o1)N1CCc2[nH]cnc2[C@H]1c1nc2ccccc2s1 [Example 1591]
6,> 5,"CCn1cnnc1C(=O)N1CCc2[nH]cnc2[C@@H]1c1nc2ccccc2s1 [Example 2077, (R)-(4-(benzo[d]thiazol-2-yl)-6,7-dihydro-1H-imidazo[4,5-c]pyridin-5(4H)-yl)(4-ethyl-4H-1,2,4-triazol-3-yl)methanone]"
7,< 0.5,CC(C)(C)c1ncoc1C(=O)N1CCc2[nH]cnc2[C@H]1c1nc2c(F)cccc2s1 [Example 2181]
8,< 0.5,CC(C)(CO)c1nc(C(F)F)c(C(=O)N2CCc3[nH]cnc3[C@H]2c2nc3c(F)cccc3s2)o1 [Example 2071]
9,1 to 5,"O=C(c1nnc(-c2ccc(F)cc2)o1)N1CCc2[nH]cnc2[C@@H]1c1nc2ccccc2s1 [Example 1370, (R)-(4-(benzo[d]thiazol-2-yl)-6,7-dihydro-1H-imidazo[4,5-c]pyridin-5(4H)-yl)(5-(4-fluorophenyl)-1,3,4-oxadiazol-2-yl)methanone]"
10,1 to 5,"CN(C)CCc1nc(C(F)(F)F)c(C(=O)N2CCCc3[nH]cnc3[C@@H]2c2nc3ccccc3s2)o1 (single isomer, unassigned) [Example 2126]"
11,1 to 5,"O=C(c1cnn(C2CC2)c1C(F)F)N1CCc2[nH]cnc2[C@@H]1c1nc2c(F)cccc2s1 [Example 2000, (R)-(1-cyclopropyl-5-(difluoromethyl)-1H-pyrazol-4-yl)(4-(4-fluorobenzo[d]thiazol-2-yl)-6,7-dihydro-1H-imidazo[4,5-c]pyridin-5(4H)-yl)methanone]"
12,< 0.5,"C[C@@H](O)c1nc(C(F)F)c(C(=O)N2CCc3[nH]cnc3[C@H]2c2nc3c(C(F)(F)F)cccc3s2)o1 [Example 2109, (4-(difluoromethyl)-2-((R)-1-hydroxyethyl)oxazol-5-yl) ((S)-4-(4-(trifluoromethyl)benzo[d]thiazol-2-yl)-6,7-dihydro-1H-imidazo[4,5-c]pyridin-5(4H)-yl)methanone]"
13,0.5 to 1,"Cc1nc([C@@H](C)O)oc1C(=O)N1CCc2[nH]cnc2[C@H]1c1nc2c(F)cccc2s1 [Example 1929, ((S)-4-(4-fluorobenzo[d]thiazol-2-yl)-6,7-dihydro-1H-imidazo[4,5-c]pyridin-5(4H)-yl)(2-((R)-1-hydroxyethyl)-4-methyloxazol-5-yl)methanone]"
14,< 0.5,"C[C@H](O)c1nc(C(F)F)c(C(=O)N2CCc3[nH]cnc3[C@H]2c2nc3c(C(F)(F)F)cccc3s2)o1 [Example 2113, (4-(difluoromethyl)-2-((S)-1-hydroxyethyl)oxazol-5-yl) ((S)-4-(4-(trifluoromethyl)benzo[d]thiazol-2-yl)-6,7-dihydro-1H-imidazo[4,5-c]pyridin-5(4H)-yl)methanone]"
15,< 0.5,"O=C(c1ncn2ccccc12)N1CCc2[nH]cnc2[C@H]1c1nc2cccc(F)c2s1 [Example 1268, (S)-(4-(7-fluorobenzo[d]thiazol-2-yl)-6,7-dihydro-1H-imidazo[4,5-c]pyridin-5(4H)-yl)(imidazo[1,5-a]pyridin-1-yl)methanone]"
16,< 0.5,Cn1ccc(-c2nnc(C(=O)N3CCc4[nH]cnc4[C@H]3c3nc4ccccc4s3)o2)n1 [Example 1805]
17,< 0.5,"Cn1cc(C(=O)N2CCc3[nH]cnc3[C@H]2c2nc3c(F)cccc3s2)c(C(F)F)n1 [Example 1841, (S)-(3-(difluoromethyl)-1-methyl-1H-pyrazol-4-yl)(4-(4-fluorobenzo[d]thiazol-2-yl)-6,7-dihydro-1H-imidazo[4,5-c]pyridin-5(4H)-yl)methanone]"
18,> 5,"Cc1ccc2nc([C@H]3c4nc[nH]c4CCN3C(=O)c3cncs3)sc2c1 [Example 1304, (R)-(4-(6-methylbenzo[d]thiazol-2-yl)-6,7-dihydro-1H-imidazo[4,5-c]pyridin-5(4H)-yl)(thiazol-5-yl)methanone]"
19,1 to 5,"Cc1nc(-c2cnn(CC(F)(F)F)c2)oc1C(=O)N1CCc2[nH]cnc2[C@@H]1c1nc2ccccc2s1 [Example 1414, (R)-(4-(benzo[d]thiazol-2-yl)-6,7-dihydro-1H-imidazo[4,5-c]pyridin-5(4H)-yl)(4-methyl-2-(1-(2,2,2-trifluoroethyl)-1H-pyrazol-4-yl)oxazol-5-yl)methanone]"
20,< 0.5,CN(C)c1nnc(C(=O)N2CCc3[nH]cnc3[C@H]2c2nc3ccccc3s2)o1 [Example 1609]
21,1 to 5,"O=C(c1oc(N2CCOCC2)nc1Br)N1CCc2[nH]cnc2[C@@H]1c1nc2c(F)cccc2s1 [Example 2034, (R)-(4-bromo-2-morpholinooxazol-5-yl)(4-(4-fluorobenzo[d]thiazol-2-yl)-6,7-dihydro-1H-imidazo[4,5-c]pyridin-5(4H)-yl)methanone]"

# Same assay, conditions: A375 cells expressing human R408W PAH; 24 hrs with compound; 13C-Tyrosine by LC-MS; average where tested multiple times; read-out: AC50
row,Molecule,AC50 [µM]
1,CC(C)(O)Cn1ncc(C(=O)N2CCc3[nH]cnc3C2c2nc3c(F)cccc3s2)c1Cl (stereo not shown),1 to 5
2,O=C(c1cnn2cc(Br)ccc12)N1CCc2[nH]cnc2C1c1nc2ccc(Cl)cc2[nH]1 (stereo not shown),> 5
3,O=C(CCc1nccs1)N1CCc2[nH]cnc2C1c1nc2ccc(Br)cc2s1 (stereo not shown),1 to 5
4,Cc1ncc(C(=O)N2CCc3[nH]cnc3C2c2nc3ccccc3s2)o1 (stereo not shown),1 to 5
5,Cc1nnc(CC(=O)N2CCc3[nH]cnc3C2c2nc3c(F)cccc3s2)s1 (stereo not shown),1 to 5
6,O=C(Cc1nc(C(F)(F)F)cs1)N1CCc2[nH]cnc2C1c1nc2ccc(Cl)cc2[nH]1 (stereo not shown),> 5
7,O=C(c1cc2ccccn2n1)N1CCc2nc[nH]c2C1c1nc2ccccc2s1 (stereo not shown),> 5
8,Cc1nc(-c2ccccn2)c(C(=O)N2CCc3[nH]cnc3C2c2nc3c(F)cccc3s2)o1 (stereo not shown),> 5
9,N#Cc1ccn2ncc(C(=O)N3CCc4[nH]cnc4C3c3nc4ccc(Br)cc4[nH]3)c2c1 (stereo not shown),> 5
10,Cc1ccc2c(C(=O)N3CCc4[nH]cnc4C3c3nc4ccc(Cl)cc4[nH]3)cnn2c1 (stereo not shown),> 5
11,O=C(CCc1nnc(C(F)F)o1)N1CCc2[nH]cnc2C1c1nc2ccccc2s1 (stereo not shown),1 to 5
12,O=C(c1cnco1)N1CC2(CC2)c2[nH]cnc2C1c1nc2ccccc2s1 (stereo not shown),1 to 5
13,Cn1nnc(C(=O)N2CCc3[nH]cnc3C2c2nc3c(F)cccc3s2)n1 (stereo not shown),1 to 5
